± gives the expanded uncertainty stated by the source.
Assays:
[1] = refractive index (other wavelength) (dimensionless); xn = mol fraction of the nth substance listed; conditions: 100 kPa, Liquid, ellipsometry
[2] = Crystal; DTA
[3] = refractive index (other wavelength) (dimensionless); conditions: 101 kPa, Liquid, Wavelength=632.8 nm, ellipsometry
[4] = refractive index (Na D-line) (dimensionless); conditions: 101.33 kPa, Liquid, ellipsometry
[5] = 923 K, Wavelength=632.8 nm, x1 = 0.5
[6] = 923 K, Wavelength=632.8 nm, x1 = 0.75
[7] = 923 K, Wavelength=632.8 nm, x1 = 1
[8] = 973 K, Wavelength=632.8 nm, x1 = 0.5
[9] = 973 K, Wavelength=632.8 nm, x1 = 0.75
[10] = 973 K, Wavelength=632.8 nm, x1 = 1
[11] = 1023 K, Wavelength=632.8 nm, x1 = 0.5
[12] = 1023 K, Wavelength=632.8 nm, x1 = 0.75
[13] = 1023 K, Wavelength=632.8 nm, x1 = 1
[14] = 1073 K, Wavelength=632.8 nm, x1 = 0.5
[15] = 1073 K, Wavelength=632.8 nm, x1 = 0.75
[16] = 1073 K, Wavelength=632.8 nm, x1 = 1
[17] = 1123 K, Wavelength=632.8 nm, x1 = 0.5
[18] = 1123 K, Wavelength=632.8 nm, x1 = 0.75
[19] = 1123 K, Wavelength=632.8 nm, x1 = 1
[20] = 1173 K, Wavelength=632.8 nm, x1 = 0.5
[21] = 1173 K, Wavelength=632.8 nm, x1 = 0.75
[22] = 1173 K, Wavelength=632.8 nm, x1 = 1
[23] = 1023 K, Wavelength=632.8 nm, x1 = 0.25
[24] = 1073 K, Wavelength=632.8 nm, x1 = 0.25
[25] = 1123 K, Wavelength=632.8 nm, x1 = 0.25
[26] = 1173 K, Wavelength=632.8 nm, x1 = 0.25

## [Cl-].[Cs+] [cesium chloride] + [Cl][Ce]([Cl])[Cl]
[1]; 1023 K, Wavelength=632.8 nm, x2 = 0
  refractive index: 1.439 ± 0.001
[1]; 1033 K, Wavelength=632.8 nm, x2 = 0
  refractive index: 1.438 ± 0.001
[1]; 1053 K, Wavelength=632.8 nm, x2 = 0
  refractive index: 1.434 ± 0.001
[1]; 1073 K, Wavelength=632.8 nm, x2 = 0
  refractive index: 1.43 ± 0.001
[1]; 1093 K, Wavelength=632.8 nm, x2 = 0
  refractive index: 1.426 ± 0.001
[1]; 1113 K, Wavelength=632.8 nm, x2 = 0
  refractive index: 1.423 ± 0.001
[1]; 1133 K, Wavelength=632.8 nm, x2 = 0
  refractive index: 1.419 ± 0.001
[1]; 1153 K, Wavelength=632.8 nm, x2 = 0
  refractive index: 1.415 ± 0.001
[1]; 1173 K, Wavelength=632.8 nm, x2 = 0
  refractive index: 1.411 ± 0.001

## [Cl-].[Cs+] [cesium chloride] + [Cl][Sm]([Cl])[Cl]
[1]; 1023 K, Wavelength=6328 nm, x2 = 0
  refractive index: 1.439 ± 0.001
[1]; 1033 K, Wavelength=6328 nm, x2 = 0
  refractive index: 1.438 ± 0.001
[1]; 1053 K, Wavelength=6328 nm, x2 = 0
  refractive index: 1.434 ± 0.001
[1]; 1073 K, Wavelength=6328 nm, x2 = 0
  refractive index: 1.43 ± 0.01
[1]; 1093 K, Wavelength=6328 nm, x2 = 0
  refractive index: 1.426 ± 0.001
[1]; 1113 K, Wavelength=6328 nm, x2 = 0
  refractive index: 1.423 ± 0.001
[1]; 1133 K, Wavelength=6328 nm, x2 = 0
  refractive index: 1.419 ± 0.001
[1]; 1153 K, Wavelength=6328 nm, x2 = 0
  refractive index: 1.415 ± 0.001
[1]; 1173 K, Wavelength=6328 nm, x2 = 0
  refractive index: 1.411 ± 0.001

## [Cl-].[Cl-].[Cl-].[Gd+3] [gadolinium(III) chloride]
[2]
  Normal melting temperature: 602 ± 4 °C
[3]; 923 K
  refractive index: 1.7 ± 0.002
[3]; 973 K
  refractive index: 1.685 ± 0.001
[3]; 1023 K
  refractive index: 1.68 ± 0.001
[3]; 1073 K
  refractive index: 1.675 ± 0.001
[3]; 1123 K
  refractive index: 1.664 ± 0.001
[3]; 1173 K
  refractive index: 1.662 ± 0.001
[4]; 923 K
  refractive index: 1.7 ± 0.002
[4]; 973 K
  refractive index: 1.685 ± 0.001
[4]; 1023 K
  refractive index: 1.68 ± 0.001
[4]; 1073 K
  refractive index: 1.675 ± 0.001
[4]; 1123 K
  refractive index: 1.664 ± 0.001
[4]; 1173 K
  refractive index: 1.662 ± 0.001

## [Cl-].[Cl-].[Cl-].[Gd+3] [gadolinium(III) chloride] + [Cl-].[Cs+]
[1]; [5]
  refractive index: 1.568 ± 0.001
[1]; [6]
  refractive index: 1.629 ± 0.001
[1]; [7]
  refractive index: 1.7 ± 0.002
[1]; [8]
  refractive index: 1.56 ± 0.001
[1]; [9]
  refractive index: 1.621 ± 0.001
[1]; [10]
  refractive index: 1.685 ± 0.001
[1]; [11]
  refractive index: 1.552 ± 0.001
[1]; [12]
  refractive index: 1.613 ± 0.001
[1]; [13]
  refractive index: 1.68 ± 0.001
[1]; 1073 K, Wavelength=632.8 nm, x1 = 0.15
  refractive index: 1.46 ± 0.002
[1]; [14]
  refractive index: 1.543 ± 0.001
[1]; [15]
  refractive index: 1.606 ± 0.001
[1]; [16]
  refractive index: 1.675 ± 0.001
[1]; 1103 K, Wavelength=632.8 nm, x1 = 0.15
  refractive index: 1.453 ± 0.002
[1]; 1103 K, Wavelength=632.8 nm, x1 = 0.5
  refractive index: 1.538 ± 0.001
[1]; 1103 K, Wavelength=632.8 nm, x1 = 0.75
  refractive index: 1.603 ± 0.001
[1]; 1123 K, Wavelength=632.8 nm, x1 = 0.15
  refractive index: 1.448 ± 0.002
[1]; [17]
  refractive index: 1.535 ± 0.001
[1]; [18]
  refractive index: 1.601 ± 0.001
[1]; [19]
  refractive index: 1.664 ± 0.001
[1]; 1173 K, Wavelength=632.8 nm, x1 = 0.15
  refractive index: 1.437 ± 0.001
[1]; [20]
  refractive index: 1.526 ± 0.001
[1]; [21]
  refractive index: 1.594 ± 0.001
[1]; [22]
  refractive index: 1.662 ± 0.001

## [Cl-].[Cl-].[Cl-].[Gd+3] [gadolinium(III) chloride] + [Cl-].[K+]
[1]; [5]
  refractive index: 1.557 ± 0.001
[1]; [6]
  refractive index: 1.665 ± 0.001
[1]; [7]
  refractive index: 1.7 ± 0.002
[1]; [8]
  refractive index: 1.551 ± 0.001
[1]; [9]
  refractive index: 1.65 ± 0.002
[1]; [10]
  refractive index: 1.685 ± 0.001
[1]; [23]
  refractive index: 1.48 ± 0.001
[1]; [11]
  refractive index: 1.546 ± 0.001
[1]; [12]
  refractive index: 1.635 ± 0.002
[1]; [13]
  refractive index: 1.68 ± 0.001
[1]; [24]
  refractive index: 1.473 ± 0.001
[1]; [14]
  refractive index: 1.54 ± 0.001
[1]; [15]
  refractive index: 1.62 ± 0.002
[1]; [16]
  refractive index: 1.675 ± 0.001
[1]; [25]
  refractive index: 1.465 ± 0.001
[1]; [17]
  refractive index: 1.534 ± 0.001
[1]; [18]
  refractive index: 1.606 ± 0.002
[1]; [19]
  refractive index: 1.664 ± 0.001
[1]; [26]
  refractive index: 1.457 ± 0.001
[1]; [20]
  refractive index: 1.529 ± 0.001
[1]; [21]
  refractive index: 1.591 ± 0.001
[1]; [22]
  refractive index: 1.662 ± 0.001

## [Cl-].[Cl-].[Cl-].[Gd+3] [gadolinium(III) chloride] + [Cl-].[Na+]
[1]; 923 K, Wavelength=632.8 nm, x1 = 0.25
  refractive index: 1.525 ± 0.001
[1]; [5]
  refractive index: 1.586 ± 0.001
[1]; [6]
  refractive index: 1.643 ± 0.001
[1]; [7]
  refractive index: 1.7 ± 0.002
[1]; 973 K, Wavelength=632.8 nm, x1 = 0.25
  refractive index: 1.518 ± 0.001
[1]; [8]
  refractive index: 1.58 ± 0.001
[1]; [9]
  refractive index: 1.64 ± 0.001
[1]; [10]
  refractive index: 1.685 ± 0.001
[1]; [23]
  refractive index: 1.512 ± 0.001
[1]; [11]
  refractive index: 1.57 ± 0.001
[1]; [12]
  refractive index: 1.638 ± 0.001
[1]; [13]
  refractive index: 1.68 ± 0.001
[1]; [24]
  refractive index: 1.505 ± 0.001
[1]; [14]
  refractive index: 1.562 ± 0.001
[1]; [15]
  refractive index: 1.627 ± 0.001
[1]; [16]
  refractive index: 1.675 ± 0.001
[1]; [25]
  refractive index: 1.496 ± 0.001
[1]; [17]
  refractive index: 1.55 ± 0.001
[1]; [18]
  refractive index: 1.62 ± 0.001
[1]; [19]
  refractive index: 1.664 ± 0.001
[1]; [26]
  refractive index: 1.488 ± 0.002
[1]; [20]
  refractive index: 1.544 ± 0.001
[1]; [21]
  refractive index: 1.616 ± 0.002
[1]; [22]
  refractive index: 1.662 ± 0.001

Source: the NIST ThermoML archive (doi:10.1021/acs.jced.6b00362)
